In brackets after ≈: the same amount, converted by molar mass.
How the values were obtained:
α4β1 Integrin = target: T1, α4β1 Integrin (Homo sapiens, UniProt P05556+P13612); experiment: α4β1 Integrin Adhesion Assay: Jurkat cell adhesion to human plasma fibronectin; type: cell-based; conditions: Jurkat cells
T1 construct: endogenous in cells; host or cells: Jurkat cells
Description: 96 well plates (Costar 3590 EIA plates) were coated with human fibronectin (Gibco/BRL, cat #33016-023) at a concentration of 10 μg/mL overnight at 4° C. The plates were then blocked with a solution of bovine serum albumin (BSA; 0.3%) in saline. Jurkat™ cells (maintained in log phase growth) were labeled with Calcein AM according to the manufacturer's instructions, and suspended at a concentration of 2×10^6 cells/mL in Hepes/Saline/BSA. The cells were then exposed to test and control compounds for 30 minutes at room temperature before transfer to individual wells of the fibronectin coated plate. Adhesion was allowed to occur for 35 minutes at 37° C. The wells were then washed by gentle aspiration and pipetting with fresh saline. Fluorescence associated with the remaining adherent cells was quantified using a fluorescence plate reader at EX 485/EM 530.
Cell cultures were prepared by first splitting the stationary phase Jurkat™ cells at 1:10 on day one, and 1:2 on day two to perform assay on day 3. The cells split 1:10 on day one were split 1:4 on day 3 for a day 4 assay.
The assay plates were prepared by first making a working solution of Gibco/BRL Human Fibronectin (cat # 33016-023) in PBS++, at 10 μg/mL.
A Costar 3590 EIA plate was then coated with 50 μL/well for 2 hours at room temperature (thought it can also be left overnight at 4° C.). Finally the plate was asperated and blocked with Hepes/Saline Buffer, 100 μL/well, for 1 hour at RT followed by washing three times with 150 μL of PBS++.
Compound dilutions were accomplished by preparing 1:3 serial dilutions of compounds as follows. For each plate (4 compounds/plate) 600 μL were added to 4 Bio-Rad Titertubes in a Titertube rack. Enough compound was added to each appropriate tube to give a 2× concentration using methods well known in the art. Using Falcon Flexiplates, 100 μL of Hepes/Saline buffer or human serum were added to rows B through G. A multi-channel pipetter set to 180 μL was used to with four tips spaced evenly the pipetter. Each set of four tubes was mixed 5 times and 180 μL of 2× compound was transferred to the first column of each compound dilution in Row B, leaving Row A empty. 180 μL were added to the other wells in Row A. Serial dilutions were performed down the plate by transferring 50 μL to the next dilution and mixing 5 times, changing tips each time after mixing. Dilutions were stopped at Row F. Row G had no compound present.
A 20 μg/mL solution in Hepes/Saline buffer or human serum, of 21/6 antibody was the positive control and was set aside in a reagent trough to add to cell suspension plate.
The cell staining was accomplished by first harvesting the log-phase Jurkat™ cells by centrifugation in 50 mL tubes (1100 rpm for 5 minutes). The cells were resuspended in 50 mL PBS++, spun, and resuspend in 20 mL PBS++. The cells were stained by adding 20 μL of Calcein AM for 30 minutes R.T. The volume was brought to 50 mL with Hepes/Saline buffer and the cells were counted, spun, and resuspend to 2×10^6 cells/mL in Hepes/Saline buffer or human serum.
The compounds were incubated using the following procedure. In a new flexiplate, 65 μL of stained cells were added to Rows B through H. Then 65 μL of 2× compounds were added to the appropriate rows following the plate setup and mixed 3×. 65 μL of 2×-21/6 antibody were added to Row H and mixed 3×. Finally the plate was incubated at room temperature for 30 minutes.
Fibronectin adhesion was measured using a fluorescent plate reader at EX 485/EM 530 after the following work up procedure. After incubation, the cells were mixed 3× and 100 μL were transferred to the Fibronectin coated plates and incubated at 37° C. for about 35 minutes. Each plate was washed, row by row, by gently pipetting 100 μL of R.T. PBS++ down the sides of the wells and turning the plate 90 degrees to aspirate. This procedure was repeated for a total of 3 washes. Each well was filled with 100 μL after washing by pipetting down the side of the well. […]

[1] = Cassette dosing and serum analysis for determination of oral bioavailability; type: in vivo, rat; conditions: male SD rats, oral cassette of 6 compounds, total dose 10 mg/kg, plasma at 4, 8, 12 h
Description: The oral bioavailability was screened by dosing rats with a cassette, i.e. mixture of 6 compounds per dosing solution. The cassette included 5 test articles and a standard compound, for a total dose of 10 mg/kg. Each compound/test article was converted to the sodium salt with equimolar 1 N NaOH and dissolved in water at 2 mg/mL. The cassette was prepared by mixing equal volumes of each of the six solutions. The cassette dosing solution was mixed well and then the pH was adjusted to 7.5–9. The dosing solution was prepared the day before the study and stirred overnight at room temperature.
Male Sprague Dawley (SD) rats from Charles River Laboratories, 6–8 weeks old were used in this screen. Rats were quarantined for at least one day and had continuous access to food and water. On the night before the administration of the cassette, the rats were fasted for approximately 16 h.
Four SD rats were assigned in each cassette. A single dose of the dosing solution was administered orally to each rat. The dosing volume (5 mL/kg) and time were recorded and rats were fed 2 h after dosing.
Blood samples were collected via cardiac puncture at the following time points: 4 h, 8 h and 12 h. Immediately prior to blood collection, rats were anesthetized with CO2 gas within 10–20 seconds. After the 12-hour samples were collected, the rats were euthanized via CO2 asphyxiation followed by cervical dislocation.
Blood samples were kept in heparinized microtainer tubes under sub-ambient temperature (4° C.) before they were processed. Blood samples were centrifuged (10000 rpm for 5 minutes) and plasma samples were removed and stored in a −20° C. freezer until analyzed for drug levels. Drug levels in the plasma were analyzed using the following protocol for direct plasma precipitation.
The in vivo plasma samples were prepared in a 1.5 mL 96-well plate, by adding, in order, 100 μL of the test plasma, 150 μL of methanol, followed by vortexing for 10–20 seconds. 150 μL of 0.05 ng/μL of an Internal Standard in acetonitrile were added and vortexed for 30 seconds.
The standard curve samples were prepared in a 1.5 mL 96-well plate, by adding, in order, 100 μL of control mouse plasma, followed by 150 μL of methanol and vortexing for 10–20 seconds. 150 μL of 0.05 ng/μL of an Internal Standard in acetonitrile were added and vortexed for 30 seconds. The samples were spiked with 0–200 ng (10 concentrations) of the compound of interest in 50% methanol to obtain a standard curve range of 0.5 ng/mL–2,000 ng/mL. Again, the sample was vortexed for 30 seconds.
The samples were then spun for 20–30 minutes at 3000 rpm in an Eppendorf microfuge before 80–90% of supernatant was transferred into a clean 96-well plate. The organic solvent was then evaporated until the samples were dry (under N2 at 40° C./30–60 min (ZymarkTurbovap)).
The residue was then dissolved in […] mobile phase (50% CH3OH/0.1% TFA). LC/MS/MS was then run using a PE-Sciex API-3000 triple quadurpole mass spectrometer (SN0749707), Perkin-Elmer, Series200auto-sampler, and shimadzu 10A pump. Acquisition was done with PE-Sciex Analyst (v1.1) and data analysis and quantification were accomplished using PE-Sciex Analyst (v1.1). A 5–50 μL sample volume was injected onto a reverse phase ThermoHypersil DASH-18 column (Keystone 2.0×20 mm, 5 μm, PN: 8823025-701) using a mobile phase of 25% CH3OH, 0.1% TFA-100% CH3OH, 0.1% TFA. The run time was about 8 minutes at a flow rate of about 300 μL/minutes.
The Area Under the Curve (AUC) was calculated using the linear trapezoidal rule from t=0 to the last sampling time tx (see Handbook of Basic Pharmacokinetics, Wolfgang A. Ritschel and Gregory L. Kearns, 5th ed, 1999). AUC^0→tx═S((Cn+Cn+1)/2))·(tn+1−tn)[(μg/mL)h]
In the case of the cassette dosing paradigm, samples at 4, 8 and 12 h post extravascular dosing, the AUC was calculated from t=0 to t=12 h.

[2] = IC50, Cell Adhesion to Human Plasma Fibronectin (With Human Serum), with human serum
[3] = IC50, Cell Adhesion to Human Plasma Fibronectin (Without the Human Serum), without human serum

T1 sequence (P13612 34-1032): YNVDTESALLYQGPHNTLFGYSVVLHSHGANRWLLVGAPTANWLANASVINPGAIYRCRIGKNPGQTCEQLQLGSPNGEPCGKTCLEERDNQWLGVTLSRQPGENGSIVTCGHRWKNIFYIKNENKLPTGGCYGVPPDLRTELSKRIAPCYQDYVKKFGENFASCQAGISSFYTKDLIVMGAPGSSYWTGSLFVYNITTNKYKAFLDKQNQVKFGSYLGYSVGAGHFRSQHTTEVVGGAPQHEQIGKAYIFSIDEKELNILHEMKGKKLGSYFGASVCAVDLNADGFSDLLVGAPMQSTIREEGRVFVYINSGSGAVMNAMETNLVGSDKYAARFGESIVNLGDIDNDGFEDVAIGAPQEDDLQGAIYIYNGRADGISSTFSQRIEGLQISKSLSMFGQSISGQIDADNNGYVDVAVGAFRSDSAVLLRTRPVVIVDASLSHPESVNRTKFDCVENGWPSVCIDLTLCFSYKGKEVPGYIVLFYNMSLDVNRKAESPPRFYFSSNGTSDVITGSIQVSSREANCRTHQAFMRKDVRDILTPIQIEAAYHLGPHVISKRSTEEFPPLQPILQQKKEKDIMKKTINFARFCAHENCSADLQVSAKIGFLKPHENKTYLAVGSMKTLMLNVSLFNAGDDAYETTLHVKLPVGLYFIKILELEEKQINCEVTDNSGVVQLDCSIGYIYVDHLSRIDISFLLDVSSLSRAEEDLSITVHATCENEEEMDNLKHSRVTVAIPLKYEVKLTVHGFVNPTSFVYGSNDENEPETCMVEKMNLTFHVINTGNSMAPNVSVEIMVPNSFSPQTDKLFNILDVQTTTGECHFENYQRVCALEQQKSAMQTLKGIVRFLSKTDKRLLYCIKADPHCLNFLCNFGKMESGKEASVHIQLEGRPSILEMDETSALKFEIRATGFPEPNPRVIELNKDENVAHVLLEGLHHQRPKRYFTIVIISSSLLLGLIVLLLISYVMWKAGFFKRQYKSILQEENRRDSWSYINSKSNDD
T1 sequence (P05556 21-798): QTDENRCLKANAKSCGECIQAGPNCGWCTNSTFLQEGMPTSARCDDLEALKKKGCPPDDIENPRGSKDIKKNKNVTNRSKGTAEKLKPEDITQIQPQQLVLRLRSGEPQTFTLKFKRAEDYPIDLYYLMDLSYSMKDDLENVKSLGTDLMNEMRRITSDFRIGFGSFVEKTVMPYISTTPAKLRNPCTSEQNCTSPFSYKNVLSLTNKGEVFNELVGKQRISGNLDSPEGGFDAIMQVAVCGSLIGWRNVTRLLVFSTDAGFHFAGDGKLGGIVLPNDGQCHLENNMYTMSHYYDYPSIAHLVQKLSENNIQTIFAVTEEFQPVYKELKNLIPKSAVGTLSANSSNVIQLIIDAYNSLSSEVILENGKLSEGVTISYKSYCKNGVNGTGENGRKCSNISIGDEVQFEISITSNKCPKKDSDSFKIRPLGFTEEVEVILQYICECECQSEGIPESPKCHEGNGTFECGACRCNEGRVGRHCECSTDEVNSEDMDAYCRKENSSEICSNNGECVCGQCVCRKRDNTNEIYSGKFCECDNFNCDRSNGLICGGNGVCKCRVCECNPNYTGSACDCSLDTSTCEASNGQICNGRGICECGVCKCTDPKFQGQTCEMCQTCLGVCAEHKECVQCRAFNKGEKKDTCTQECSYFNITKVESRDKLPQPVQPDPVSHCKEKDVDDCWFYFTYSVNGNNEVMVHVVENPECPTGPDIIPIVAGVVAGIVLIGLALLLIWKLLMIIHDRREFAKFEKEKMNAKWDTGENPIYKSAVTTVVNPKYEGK

| Molecule | IC50, Cell Adhesion to Human Plasma Fibronectin (With Human Serum) (α4β1 Integrin; with human serum) | IC50, Cell Adhesion to Human Plasma Fibronectin (Without the Human Serum) (α4β1 Integrin; without human serum) | AUC (average AUC 0→12 h) [1] | IC50 (α4β1 Integrin; [2]) | IC50 (α4β1 Integrin; [3]) |
| --- | --- | --- | --- | --- | --- |
| 2-{2-diethylamino-5-[(benzenesulfonyl)methylamino]pyrimidin-4-ylamino}-3-(4-dimethylcarbamoyloxyphenyl)propionic acid [Example 5] | 1.851 µg/mL | 0.001414 µg/mL | 0.9577 (μg/mL)h |  |  |
| 2-{2-diethylamino-5-[(4-fluorobenzenesulfonyl)methylamino]pyrimidin-4-ylamino}-3-(4-dimethylcarbamoyloxyphenyl)propionic acid [Example 1] | 0.318 µg/mL | 0.002 µg/mL | 2.3308 (μg/mL)h |  |  |
| 2-{2-diethylamino-5-[(2-fluorobenzenesulfonyl)methylamino]pyrimidin-4-ylamino}-3-(4-dimethylcarbamoyloxyphenyl)propionic acid [Example 6] | 0.3138 µg/mL | 0.000511 µg/mL | 0.6538 (μg/mL)h |  |  |
| CCN(CC)c1ncc(N(C(C)C)S(=O)(=O)c2ccc(F)c(F)c2)c(NC(Cc2ccc(OC(=O)N(C)C)cc2)C(=O)O)n1 (stereo not drawn) [Example 10, 2-{2-diethylamino-5-[(3,4-difluorobenzenesulfonyl)isopropylamino]pyrimidin-4-ylamino}-3-(4-dimethylcarbamoyloxyphenyl) propionic acid] |  |  | 0.1215 (μg/mL)h | 404 nM | 7.33 nM |
| CCN(CC)c1ncc(N(CC2CC2)S(=O)(=O)c2ccc(F)cc2)c(N[C@@H](Cc2ccc(OC(=O)N(C)C)cc2)C(=O)O)n1 [Example 14, 2-{2-diethylamino-5-[(4-fluorobenzenesulfonyl)cylclopropylmethylamino]pyrimidin-4-ylamino}-3-(4-dimethylcarbamoyl-oxyphenyl)propionic acid] |  |  | 0.7164 (μg/mL)h | 63.6 nM | 1.59 nM |
| CCN(CC)c1ncc(N(C)S(=O)(=O)c2cccc(F)c2)c(N[C@@H](Cc2ccc(OC(=O)N(C)C)cc2)C(=O)O)n1 [Example 7, 2-{2-diethylamino-5-[(3-fluorobenzenesulfonyl)methylaminol]pyrimidin-4-ylamino}-3-(4-dimethylcarbamoyloxyphenyl) propionic acid] |  |  | 0.717 (μg/mL)h | 997 nM | 1.39 nM |
| CCCN(c1cnc(N(CC)CC)nc1NC(Cc1ccc(OC(=O)N(C)C)cc1)C(=O)O)S(=O)(=O)c1ccc(F)cc1 (stereo not drawn) [Example 21, 2-{2-diethylamino-5-[(4-fluorobenzenesulfonyl)-n-propylamino]pyrimidin-4-ylamino}-3-(4-dimethylcarbamoyloxyphenyl) propionic acid] |  |  | 0.6321 (μg/mL)h | 649 nM | 5.09 nM |
| CCN(CC)c1ncc(N(CC)S(=O)(=O)c2cccc(F)c2F)c(NC(Cc2ccc(OC(=O)N(C)C)cc2)C(=O)O)n1 (stereo not drawn) [Example 26, 2-{2-diethylamino-5-[(2.3-difluorobenzenesulfonyl)ethylamino]pyrimidin-4-ylamino}-3-(4-dimethylcarbamoyloxyphenyl) propionic acid] | 0.01848 µg/mL (≈ 0.0298 µM) | 0.001 µg/mL (≈ 0.00161 µM) | 0.3392 (μg/mL)h |  |  |
| CCN(CC)c1ncc(N(C(C)C)S(=O)(=O)c2ccc(Cl)cc2)c(N[C@@H](Cc2ccc(OC(=O)N(C)C)cc2)C(=O)O)n1 [Example 11] |  |  | 0.4251 (μg/mL)h | 362 nM | 3.85 nM |
| 2-{2-diethylamino-5-[(4-chlorobenzenesulfonyl)methylamino]pyrimidin-4-ylamino}-3-(4-dimethylcarbamoyloxyphenyl)propionic acid [Example 2] | 0.317 µg/mL | 0.002 µg/mL | 1.8689 (μg/mL)h |  |  |
| CCN(CC)c1ncc(N(C(C)C)S(=O)(=O)c2ccc(F)cc2)c(N[C@@H](Cc2ccc(OC(=O)N(C)C)cc2)C(=O)O)n1 [Example 8] |  |  | 0.5088 (μg/mL)h | 264 nM | 4.87 nM |

— patent US7008949B2, “Heterocyclic compounds which inhibit leukocyte adhesion mediated by α4 integrins” (Elan Pharmaceuticals, Inc., priority 2003, dated 2006)
